Patent US12116388B2, “Amylin receptor agonists” (Novo Nordisk A/S, priority 2022, dated 2024)
Starred links: 1 amine or outer side, 2 acyl side, 3 side chain; linkers in the order of their positions; H or OH if unused. Residues, ends and D or L forms follow the SMILES beside them. Groups on a side chain read outwards from the residue. *: point of attachment. C20 diacid = O=C(O)CCCCCCCCCCCCCCCCCCC(=O)*; C18 diacid = O=C(O)CCCCCCCCCCCCCCCCC(=O)*; γGlu = O=C(O)[C@H](CCC(=O)[*:2])N[*:1]

What was measured:
[1] = molecular target: T1, human amylin receptor (hAMYR3) (Homo sapiens, UniProt O60896+P30988); experiment: Human amylin receptor (hAMYR3) in vitro potency assay, CRE-luciferase reporter in BHK cells; type: cell-based; settings: BHK hAMYR3/CRE-Luc cells, 3 hours incubation, assay buffer with 1% ovalbumin
T1 construct: host or cells: BHK (Baby Hamster Kidney), Hollex-1 cell line further transfected with RAMP3
T1 sequence (P30988 25-474): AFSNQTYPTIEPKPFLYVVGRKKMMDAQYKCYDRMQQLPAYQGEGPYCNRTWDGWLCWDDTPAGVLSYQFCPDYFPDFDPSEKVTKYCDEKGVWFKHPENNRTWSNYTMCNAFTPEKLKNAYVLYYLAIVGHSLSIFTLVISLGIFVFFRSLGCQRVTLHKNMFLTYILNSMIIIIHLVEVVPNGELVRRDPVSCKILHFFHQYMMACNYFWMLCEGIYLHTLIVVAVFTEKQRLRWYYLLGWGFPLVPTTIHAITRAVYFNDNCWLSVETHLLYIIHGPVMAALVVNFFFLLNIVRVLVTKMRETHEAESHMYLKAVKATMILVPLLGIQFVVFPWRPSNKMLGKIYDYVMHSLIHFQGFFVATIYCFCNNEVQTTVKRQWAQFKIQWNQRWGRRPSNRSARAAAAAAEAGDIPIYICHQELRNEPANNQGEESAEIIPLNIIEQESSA
T1 sequence (O60896 24-148): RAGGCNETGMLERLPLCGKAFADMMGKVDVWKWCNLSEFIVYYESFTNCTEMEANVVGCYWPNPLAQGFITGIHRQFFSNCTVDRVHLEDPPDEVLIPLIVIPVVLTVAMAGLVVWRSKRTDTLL
Outline: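 BHK cells stably expressing human calcitonin receptor (a) plus RAMP3 and a CRE-luciferase reporter, seeded overnight, then exposed to 7-point 7-fold dilutions (often from ~10 nM) in DMEM/HEPES buffer with 1% ovalbumin for 3 h at 37 °C. Luciferase luminescence read after SteadyLite Plus addition.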

[2] = Oral pharmacokinetic profiles in Beagle dogs (SNAC tablets); type: in vivo; settings: oral tablet: 3 mg compound, 300 mg SNAC, 7.7 mg magnesium stearate; for half-life: male, dog, plasma, read-out: T½ (converted)
Method: To be able to evaluate oral exposure following tablet dosing, tablet compositions comprising the test substance and SNAC (sodium N-(8-(2-hydroxybenzoyl)amino)caprylate) were prepared by mixing test substance with roller compacted SNAC and magnesium stearate as, e.g., described in WO 2019/149880.
This assay was performed to measure the oral bioavailability of a compound. The assay determined the exposure of test compound following oral administration in Beagle dogs as described by relevant pharmacokinetic parameters and plasma concentration curves.
Preparation of tablets for oral administration: tablets containing test compound used for the assay described herein were immediate release SNAC-based tablets. The test compound was spray-dried as neutral sodium salt (pH 7-8). Dry granulation was carried out by roller compaction on a Gerteis MINI-PACTOR. Tablets containing 3 mg test compound, 300 mg sodium N-(8-(2-hydroxybenzoyl)amino)caprylate (SNAC) and 7.7 mg magnesium stearate were produced on at Kilian Style One using 7.2×12 mm punches.
Determination of the absorption following oral administration: eight (8) male Beagle dogs, 1 to 8 years of age and weighing approximately 10-15 kg at the start of the studies, were used. The dogs were group-housed in pens (12 hours light:12 hours dark), and fed individually and restrictedly once daily with Royal Canin Medium Adult dog (Royal Canin Products, China Branch, or Brogaarden A/S, Denmark). Exercise and group social were permitted daily, whenever possible. The dogs were used for repeated pharmacokinetic studies with a suitable wash-out period between successive dosing. An appropriate acclimatisation period was given prior to initiation of the first pharmacokinetic study. All handling, dosing and blood sampling of the animals were performed by trained and skilled staff. Before the studies the dogs were fasted overnight and from 0 to 4 h after dosing. Besides, the dogs were restricted to water 1 hour before dosing until 4 hours after dosing, but otherwise had ad libitum access to water during the whole period.
Tablets containing the test compound were administered in the following manner: 10 min prior to tablet administration the dogs were dosed subcutaneously with approximately 3.2 nmol/kg of glucagon. The tablets were placed in the back of the mouth of the dog to prevent chewing. The mouth was then closed, and 10 mL of tap water was given by a syringe to facilitate swallowing of the tablet. Blood was sampled at predefined time points for up till 288 hours after dosing to adequately cover the full plasma concentration-time absorption profile of the compound. For each blood sampling time point approximately 1.2 mL of whole blood was collected in a 1.5 mL EDTA coated tube, and the tube was gently turned to allowing mixing of the sample with the EDTA. Then, the blood samples were kept on ice until centrifugation (4 min, 4° C., 4000 rpm). Plasma was pipetted into Micronic tubes on dry ice and kept at −20° C. until analysis. Blood samples were taken as appropriate, for example from a venflon in the cephalic vein in the front leg for the first 2 hours and then with syringe from the jugular vein for the rest of the time points (the first few drops were allowed to drain from the venflon to avoid heparin saline from the venflon in the sample).
Bioanalysis was carried out as follows: plasma concentrations of test compound were assayed by plasma protein precipitation and analysed by liquid chromatography-mass spectrometry (LC-MS). Calibrators were prepared by spiking blank dog plasma with analytes to reach the final concentrations in the range typically from 0.5 to 200 nM. Calibrators, plasma blanks or study samples were prepared for LC-MS by protein precipitation by adding 3 volumes of ethanol followed by centrifugation at 4000 rpm at 4° C. for 1 h. The supernatant was diluted with 2 volumes of Milli-Q water containing 0.1% formic acid before injection on the LC-MS system. […]

| Compound | EC50 [1] | half-life [2] | AUC/D [2] | Cmax/D [2] |
| --- | --- | --- | --- | --- |
| CC[C@H](C)[C@H](NC(=O)[C@@H]1CCCN1C(=O)CNC(=O)[C@H](Cc1ccccc1)NC(=O)[C@H](Cc1c[nH]cn1)NC(=O)[C@H](Cc1c[nH]cn1)NC(=O)[C@H](CC(C)C)NC(=O)[C@H](Cc1ccccc1)NC(=O)[C@H](CCC(=O)O)NC(=O)[C@H](C)NC(=O)[C@H](CC(C)C)NC(=O)[C@H](CCCNC(=N)N)NC(=O)[C@H](CCC(N)=O)NC(=O)[C@@H](NC(=O)[C@H](CCC(N)=O)NC(=O)[C@H](C)NC(=O)[C@@H](NC(=O)[C@H](CO)NC(=O)[C@H](CC(C)C)NC(=O)[C@H](Cc1c[nH]cn1)NC(=O)[C@H](CO)NC(=O)[C@H](C)NC(=O)CC[C@H](NC(=O)CCCCCCCCCCCCCCCCCCC(=O)O)C(=O)O)[C@@H](C)O)[C@@H](C)O)C(=O)N[C@@H](CC(C)C)C(=O)N1CCC[C@H]1C(=O)N1CCC[C@H]1C(=O)N[C@H](C(=O)N[C@@H](CC(=O)O)C(=O)N[C@H](C(=O)NCC(=O)N[C@@H](CO)C(=O)N[C@@H](CCC(=O)O)C(=O)N[C@H](C(=O)N1CCC[C@H]1C(N)=O)[C@@H](C)O)C(C)C)[C@@H](C)O [Compound 4, N^1-[(4S)-4-carboxy-4-(19-carboxynonadecanoylamino)butanoyl]-[Ala1,Ser2,His3,Leu4,Ser5,Ala7,Gln8,Glu14,His17,Pro25,Pro28,Pro29,Asp31,Glu35,Pro37],des-(19-22)-human amylin] ({C20 diacid-γGlu}-ASHLSTAQTQRLAEFLHHFGPILPPTDVGSETP-NH2) | 1.12 pM | 130 h | 21.24 kg·h/L | 0.23 kg/L |
| CC[C@H](C)[C@H](NC(=O)[C@H](C)NC(=O)CNC(=O)[C@H](Cc1ccccc1)NC(=O)[C@@H]1CCCN1C(=O)[C@H](CC(=O)O)NC(=O)[C@H](CO)NC(=O)[C@H](CO)NC(=O)[C@H](Cc1c[nH]cn1)NC(=O)[C@H](Cc1c[nH]cn1)NC(=O)[C@H](CC(C)C)NC(=O)[C@H](Cc1ccccc1)NC(=O)[C@H](CCC(=O)O)NC(=O)[C@H](C)NC(=O)[C@H](CC(C)C)NC(=O)[C@H](CCCNC(=N)N)NC(=O)[C@H](CCC(N)=O)NC(=O)[C@@H](NC(=O)[C@H](CCC(N)=O)NC(=O)[C@H](C)NC(=O)[C@@H](NC(=O)[C@H](CO)NC(=O)[C@H](CC(C)C)NC(=O)[C@H](Cc1c[nH]cn1)NC(=O)[C@H](CO)NC(=O)[C@H](C)NC(=O)CC[C@H](NC(=O)CCCCCCCCCCCCCCCCC(=O)O)C(=O)O)[C@@H](C)O)[C@@H](C)O)C(=O)N1CCC[C@H]1C(=O)N[C@@H](CO)C(=O)N[C@@H](CO)C(=O)N[C@H](C(=O)N[C@@H](CC(=O)O)C(=O)N[C@H](C(=O)NCC(=O)N1CCC[C@H]1C(=O)N[C@@H](CC(=O)O)C(=O)N[C@H](C(=O)N1CCC[C@H]1C(N)=O)[C@@H](C)O)C(C)C)[C@@H](C)O [Compound 8, N^1-[(4S)-4-carboxy-4-(17-carboxyheptadecanoylamino)butanoyl]-[Ala1,Ser2,His3,Leu4,Ser5,Ala7,Gln8,Glu14,His17,Asp21,Pro22,Pro27,Asp31,Pro34,Asp35,Pro37]-human amylin] ({C18 diacid-γGlu}-ASHLSTAQTQRLAEFLHHSSDPFGAIPSSTDVGPDTP-NH2) | 1.5 pM | 121 h | 17.52 kg·h/L | 0.24 kg/L |
| CC[C@H](C)[C@H](NC(=O)[C@H](C)NC(=O)CNC(=O)[C@H](Cc1ccccc1)NC(=O)[C@@H]1CCCN1C(=O)[C@H](CC(=O)O)NC(=O)[C@H](CO)NC(=O)[C@H](CO)NC(=O)[C@H](Cc1c[nH]cn1)NC(=O)[C@H](Cc1c[nH]cn1)NC(=O)[C@H](CC(C)C)NC(=O)[C@H](Cc1ccccc1)NC(=O)[C@H](CCC(=O)O)NC(=O)[C@H](C)NC(=O)[C@H](CC(C)C)NC(=O)[C@H](CCCNC(=N)N)NC(=O)[C@H](CCC(N)=O)NC(=O)[C@@H](NC(=O)[C@H](CCC(N)=O)NC(=O)[C@H](C)NC(=O)[C@@H](NC(=O)[C@H](CO)NC(=O)[C@H](CC(C)C)NC(=O)[C@H](CO)NC(=O)CNC(=O)[C@H](C)NC(=O)CC[C@H](NC(=O)CCCCCCCCCCCCCCCCC(=O)O)C(=O)O)[C@@H](C)O)[C@@H](C)O)C(=O)N1CCC[C@H]1C(=O)N[C@@H](CO)C(=O)N[C@@H](CO)C(=O)N[C@H](C(=O)N[C@@H](CC(=O)O)C(=O)N[C@H](C(=O)NCC(=O)N1CCC[C@H]1C(=O)N[C@@H](CC(=O)O)C(=O)N[C@H](C(=O)N1CCC[C@H]1C(N)=O)[C@@H](C)O)C(C)C)[C@@H](C)O [Compound 10, N^1-[(4S)-4-carboxy-4-(17-carboxyheptadecanoylamino)butanoyl]-[Ala1,Gly2,Ser3,Leu4,Ser5,Ala7,Gln8,Glu14,His17,Asp21,Pro22,Pro27,Asp31,Pro34,Asp35,Pro37]-human amylin] ({C18 diacid-γGlu}-AGSLSTAQTQRLAEFLHHSSDPFGAIPSSTDVGPDTP-NH2) | 1.44 pM | 131 h | 27.73 kg·h/L | 0.34 kg/L |
| CC[C@H](C)[C@H](NC(=O)[C@H](CCCCNC(=O)CC[C@H](NC(=O)CCCCCCCCCCCCCCCCC(=O)O)C(=O)O)NC(=O)CNC(=O)[C@H](Cc1ccccc1)NC(=O)[C@H](CC(N)=O)NC(=O)[C@H](CC(=O)O)NC(=O)[C@H](CO)NC(=O)[C@H](CO)NC(=O)[C@H](Cc1c[nH]cn1)NC(=O)[C@H](Cc1c[nH]cn1)NC(=O)[C@H](CC(C)C)NC(=O)[C@H](Cc1ccccc1)NC(=O)[C@H](CCC(=O)O)NC(=O)[C@H](C)NC(=O)[C@H](CC(C)C)NC(=O)[C@H](CCCNC(=N)N)NC(=O)[C@H](C)NC(=O)[C@@H](NC(=O)[C@H](CCC(N)=O)NC(=O)[C@H](C)NC(=O)[C@@H](NC(=O)[C@H](CO)NC(=O)[C@H](CC(C)C)NC(=O)[C@H](Cc1c[nH]cn1)NC(=O)[C@H](CO)NC(=O)[C@H](C)NC(C)=O)[C@@H](C)O)[C@@H](C)O)C(=O)N[C@@H](CC(C)C)C(=O)N1CCC[C@H]1C(=O)N1CCC[C@H]1C(=O)N[C@H](C(=O)N[C@@H](CC(=O)O)C(=O)N[C@H](C(=O)NCC(=O)N[C@@H](CO)C(=O)N[C@@H](CC(N)=O)C(=O)N[C@H](C(=O)N1CCC[C@H]1C(N)=O)[C@@H](C)O)C(C)C)[C@@H](C)O [Compound 41, N^1-acetyl,N{Epsilon-25}-[(4S)-4-carboxy-4-(17-carboxyheptadecanoylamino)butanoyl]-[Ala1,Ser2,His3,Leu4,Ser5,Ala7,Gln8,Ala10,Glu14,His17,Asp21,Lys25,Pro28,Pro29,Asp31,Pro37]-human amylin] (Ac-ASHLSTAQTARLAEFLHHSSDNFGK([γGlu-C18 diacid])ILPPTDVGSNTP-NH2) | 1.16 pM | – | – | – |
